Laboratory results taken from PubChem BioAssay (NCI).
Where “and” joins values, the source holds several entries; their conditions need not be identical. Equal values may be shown once.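 Briefly, cells in 96-well plates were exposed to five compound concentrations for 48 h, and endpoints were estimated by linear interpolation. GI50 = concentration required for 50% inhibition of growth. Definition used: TGI = concentration required for complete inhibition of growth.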

Tests used:
Assay in all cases: inhibition of tumour cell growth, NCI panel, 48 h
[1] = test system: CAKI-1 renal
[2] = test system: HOP-62 NSCLC
[3] = test system: HS 578T breast
[4] = test system: LOX IMVI melanoma
[5] = test system: NCI-H460 lung
[6] = test system: OVCAR-8 ovarian
[7] = test system: RPMI-8226 leukemia
[8] = test system: SF-539 CNS
[9] = test system: SNB-19 CNS
[10] = test system: K-562 leukemia

Row | SMILES | GI50 [1] | TGI [1] | GI50 [2] | TGI [2] | GI50 [3] | TGI [3] | GI50 [4] | TGI [4] | GI50 [5] | TGI [5] | GI50 [6] | TGI [6] | GI50 [7] | TGI [7] | GI50 [8] | TGI [8] | GI50 [9] | TGI [9] | TGI [10] | GI50 [10]
1 | COc1ccc(C(=O)CC(Cl)=C(Cl)Cl)cc1 | 23.2 µM | 53.5 µM | 61.4 µM | > 100 µM | > 100 µM | > 100 µM | 19.2 µM | 43.4 µM | > 100 µM | > 100 µM | 33.2 µM | > 100 µM | 23.5 µM | 68.5 µM | 37.2 µM | > 100 µM | 32.4 µM | > 100 µM |  | 
2 | C=C1C(=O)O[C@H]2[C@H]1CC/C(Cn1cc(CNC(=O)c3cc4ccccc4[nH]3)nn1)=C\CC[C@@]1(C)O[C@@H]21 | 2.26 µM | 12.2 µM | 13.3 µM | 31.3 µM | 19 µM | 55.4 µM | 1.82 µM | 4.06 µM | 20.1 µM | 41 µM | 4.69 µM | 17.2 µM | 3.37 µM | 9.34 µM | 2.85 µM | 8.65 µM | 7.44 µM | 20.4 µM |  | 
3 | Cc1ccc(S(=O)(=O)c2ccccn2)cc1 |  | > 100 µM |  | > 100 µM |  |  |  | > 100 µM |  | > 100 µM |  | > 100 µM |  | > 100 µM |  | > 100 µM |  | > 100 µM | > 100 µM | 
4 | CC1CCCC2(O1)OC1CC(=O)OC1C1=C2C(=O)c2ccccc2C1=O (centres undefined) |  | 7.13 µM |  | 30.2 µM |  |  |  | 9.29 µM |  | 67.2 µM |  | 7.06 µM |  | 4.27 µM |  | 19.9 µM |  | 30.5 µM |  | 
5 | CC1SC(c2cccc(Oc3ccccc3)c2)N(CCc2cccs2)C1=O (centres undefined) | 0.519 µM | 3.37 µM | 1.6 µM | 3.42 µM |  |  | 0.883 µM | 2.11 µM | 1.09 µM | 2.49 µM | 1.49 µM | 5.06 µM | 0.542 µM | 2.94 µM | 1.5 µM | 3.11 µM | 1.64 µM | 9.01 µM | 7.79 µM | 0.573 µM
6 | C[N+](C)(C)CC(=O)N/N=C(\C(=O)Nc1ccc(Cl)cc1)C1C(=O)N(c2ccccc2)N=C1N (centres undefined) |  | > 100 µM |  | > 100 µM |  |  |  | > 100 µM |  | > 100 µM |  | > 100 µM |  | > 100 µM |  | > 100 µM |  | > 100 µM | > 100 µM | 
7 | Cc1nc2c(=O)n(C)c(=O)nc-2n(-c2ccc(Cl)cc2)c1C |  | > 100 µM |  | > 100 µM |  |  |  |  |  | > 100 µM |  | > 100 µM |  |  |  | > 100 µM |  | > 100 µM | > 100 µM | 
8 | Oc1ccc(-c2nc(-c3ccc4oc5ccc(-c6[nH]c(-c7ccc(O)cc7)nc6-c6ccccc6)cc5c4c3)c(-c3ccccc3)[nH]2)cc1 | 13.7 µM | 41.7 µM | 7.62 µM | 42.3 µM | 3.55 µM | 68.7 µM |  |  | 3.01 µM | 9.85 µM | 2.23 µM | 5.32 µM | 3.17 µM | > 100 µM | 4.17 µM | 21.3 µM | 19.1 µM | 83.5 µM |  | 
9 | Cc1ccc(CCNC(=S)SCC(NC(=O)CCC(N)C(=O)O)C(=O)NCC(=O)O)cc1 (centres undefined) |  | 3.44 µM |  | 8.08 µM |  |  |  | 1.55 µM |  | 8.09 µM |  | 4.65 µM |  | 1.43 µM |  | 2.97 µM |  | 4.98 µM | 2.5 µM | 
10 | COc1ccc(/C=C(\NC(=O)c2ccccc2)c2nc3ccccc3[nH]2)cc1 |  | > 100 µM |  | > 100 µM |  |  |  |  |  | > 100 µM |  | > 100 µM |  | 69.9 µM |  | > 100 µM |  | > 100 µM | > 100 µM | 
11 | COc1cc(C2C(C(=O)Nc3ccc(Cl)c(Cl)c3)=C(C)NC(C)=C2C(=O)Nc2ccc(Cl)c(Cl)c2)ccc1O |  | 34.1 µM |  | 23.1 µM |  |  |  | 33.9 µM |  | 35.5 µM |  | 40.3 µM |  | 30.1 µM |  | 24.9 µM |  | 25.6 µM | 26.2 µM | 
12 | O=C1c2ccccc2CC1C1(O)C(=O)Nc2c(Cl)cc(Cl)cc21 (centres undefined) |  | > 100 µM |  | > 100 µM |  |  |  | > 100 µM |  | > 100 µM |  | > 100 µM |  | > 100 µM |  |  |  | > 100 µM | > 100 µM | 
13 | CCOc1ccccc1Nc1nc(C)c(C(=O)CC(=O)C(=O)Nc2ccccc2)s1 |  | > 100 µM |  | > 100 µM |  |  |  | > 100 µM |  | > 100 µM |  | > 100 µM |  |  |  | > 100 µM |  | > 100 µM | > 100 µM | 
14 | COc1cccc2c1C(=N)c1c(O)c3c(c(O)c1C2=O)C[C@@](O)(C(C)=O)C[C@@H]3OC1CC(N)C(O)C(C)O1 (some centres undefined) |  | 1.37 µM and 1.03 µM and 4.86 µM |  |  |  |  |  |  |  | 2.01 µM and 2.11 µM and 0.239 µM |  | 2.62 µM and 3.56 µM |  |  |  |  |  |  | 3.34 µM and 14.8 µM and 6.67 µM | 
15 | COc1ccc2nccc(C3OC(=O)N4CCC(=O)CC34)c2c1 (centres undefined) |  | > 100 µM |  | > 100 µM |  |  |  | > 100 µM |  | > 100 µM |  | > 100 µM |  | > 100 µM |  | > 100 µM |  | > 100 µM | > 100 µM | 
16 | Cc1cn2cc(-c3ccncc3)nc2s1 |  | > 100 µM |  | > 100 µM |  |  |  | > 84.4 µM |  | > 100 µM |  | > 100 µM |  | > 90.2 µM |  | > 100 µM |  | > 100 µM | > 100 µM | 

Row | SMILES | GI50 [1] | TGI [1] | GI50 [2] | TGI [2] | GI50 [3] | TGI [3] | GI50 [4] | TGI [4] | GI50 [5] | TGI [5] | GI50 [6] | TGI [6] | GI50 [7] | TGI [7] | GI50 [8] | TGI [8] | GI50 [9] | TGI [9] | TGI [10] | GI50 [10]
17 | O=C(N/N=C/c1cc(-c2ccccc2Cl)c(-c2ccccc2Cl)o1)c1ccncc1 |  | > 100 µM |  | > 100 µM |  |  |  | > 100 µM |  |  |  |  |  | 65.9 µM |  | > 100 µM |  | > 100 µM |  | 
18 | CC(=O)OC12CCCCC1C1(CCCC1)NC2=O (centres undefined) |  |  |  | > 100 µM |  |  |  | > 100 µM |  | > 100 µM |  | > 100 µM |  | > 100 µM |  | > 100 µM |  | > 100 µM | > 100 µM | 
19 | COc1cc(/C=C/C(=O)C(C)(C)C)cc(OC)c1OC |  | > 100 µM |  | > 100 µM |  |  |  | 44 µM |  | 67.4 µM |  | > 100 µM |  | > 100 µM |  | > 100 µM |  | > 100 µM | > 100 µM | 
20 | O=C1[C@@H]2C3C=CC([C@H]4C(=O)N(CO)C(=O)[C@@H]34)[C@@H]2C(=O)N1CO |  | > 100 µM |  | > 100 µM |  |  |  | > 61 µM |  | > 55.1 µM |  | 97.6 µM |  | 49.5 µM |  | > 100 µM |  | > 100 µM | > 100 µM | 
21 | Cc1cccc(NC(=O)c2sc3nc4c(cc3c2N)CCC4)c1C | 0.332 µM | 56.7 µM | 0.428 µM | 17.4 µM | 0.486 µM | 16 µM | 0.643 µM | > 100 µM | 0.382 µM | 13.1 µM | 0.427 µM | 16.6 µM | 0.346 µM | 16.2 µM | 0.241 µM | 2.51 µM | 0.532 µM | 29.1 µM |  | 
22 | CCCCCC1C2C(=O)NC(=O)C1C(=O)NC2=O (centres undefined) |  | > 100 µM |  | > 100 µM |  |  |  | > 100 µM |  | > 100 µM |  | > 100 µM |  | > 100 µM |  | > 100 µM |  | > 100 µM | > 100 µM | 
23 | Oc1c(Br)cc(Br)c2cccnc12 | 2.29 µM | 6.79 µM | 3.57 µM | 30.8 µM | 5.73 µM | > 100 µM | 2.94 µM | 14.1 µM | 2.94 µM | 10.7 µM | 3.75 µM | > 100 µM | 3.45 µM | 24.8 µM | 3.17 µM | 7.63 µM | 3.99 µM | > 100 µM |  | 
24 | CC/C(=C(\c1ccccc1)c1ccc(OCC[N+](C)(C)C)cc1)c1ccccc1 |  | 32.2 µM |  | 56.5 µM |  |  |  | 27.7 µM |  | 37.4 µM |  | 37.9 µM |  | 28.8 µM |  | 40.6 µM |  | 37.1 µM | 19.9 µM | 
25 | CC(=O)NC(Cc1ccccc1)C(=S)N1CCCC1 (centres undefined) |  | > 100 µM |  | > 100 µM |  |  |  | > 100 µM |  | > 100 µM |  | > 100 µM |  | > 100 µM |  | > 100 µM |  | > 100 µM | > 100 µM | 
26 | O=C(Cc1nc2ccccc2s1)C(=O)Nc1ccccc1C(F)(F)F |  | > 100 µM |  | > 100 µM |  |  |  | > 100 µM |  | > 100 µM |  | > 100 µM |  |  |  | > 100 µM |  | > 100 µM | > 100 µM | 
27 | NCCN.O=N[O-].O=N[O-].O=N[O-].O=N[O-].[Co+3].[K+] |  |  | > 100 µM | > 100 µM |  |  | > 100 µM | > 100 µM | > 100 µM | > 100 µM | > 100 µM | > 100 µM | > 100 µM | > 100 µM | > 100 µM | > 100 µM | > 100 µM | > 100 µM | > 100 µM | > 100 µM
28 | Cc1ccc(S(=O)(=O)NC2(C=O)CCC(C(C)(C)C)CC2)cc1 (centres undefined) |  | > 100 µM |  | > 100 µM |  |  |  |  |  | > 100 µM |  | > 100 µM |  | 46.3 µM |  | > 100 µM |  | > 100 µM | 70.8 µM | 
29 | CCc1cccc(C(C)C)c1C1C(=O)C(=O)N(c2nc3ccccc3s2)C(=O)C1=O |  | > 100 µM |  | > 100 µM |  |  |  | > 100 µM |  | > 100 µM |  |  |  | > 100 µM |  | > 100 µM |  | > 100 µM | > 100 µM | 
30 | Cc1nn(C(=O)CC(=O)Nc2ccccc2Cl)c(C)c1N=Nc1ccccc1Cl |  | > 100 µM |  | > 100 µM |  |  |  | > 100 µM |  | > 100 µM |  | > 100 µM |  |  |  | > 100 µM |  | > 100 µM | > 100 µM | 
31 | O=[N+]([O-])c1ccc(-c2ccc(C3=Nn4c(nnc4-c4ccc(Cl)cc4)SC3)o2)cc1 |  | > 100 µM |  | > 76.3 µM |  |  |  | > 100 µM |  | > 100 µM |  | > 100 µM |  | > 100 µM |  | > 100 µM |  | > 76.8 µM | > 100 µM | 
